Common to all, as to assay: Eurofins kinase selectivity profile against 380 other human recombinant kinases (Table S2)
Common to all, as to format: biochemical

For assay [1], the target named is T1, 380 human recombinant protein kinases (Homo sapiens, UniProt P30530).
T1 construct: purchased Eurofins (Celle Lévescault)
T1 sequence (P30530 26-894): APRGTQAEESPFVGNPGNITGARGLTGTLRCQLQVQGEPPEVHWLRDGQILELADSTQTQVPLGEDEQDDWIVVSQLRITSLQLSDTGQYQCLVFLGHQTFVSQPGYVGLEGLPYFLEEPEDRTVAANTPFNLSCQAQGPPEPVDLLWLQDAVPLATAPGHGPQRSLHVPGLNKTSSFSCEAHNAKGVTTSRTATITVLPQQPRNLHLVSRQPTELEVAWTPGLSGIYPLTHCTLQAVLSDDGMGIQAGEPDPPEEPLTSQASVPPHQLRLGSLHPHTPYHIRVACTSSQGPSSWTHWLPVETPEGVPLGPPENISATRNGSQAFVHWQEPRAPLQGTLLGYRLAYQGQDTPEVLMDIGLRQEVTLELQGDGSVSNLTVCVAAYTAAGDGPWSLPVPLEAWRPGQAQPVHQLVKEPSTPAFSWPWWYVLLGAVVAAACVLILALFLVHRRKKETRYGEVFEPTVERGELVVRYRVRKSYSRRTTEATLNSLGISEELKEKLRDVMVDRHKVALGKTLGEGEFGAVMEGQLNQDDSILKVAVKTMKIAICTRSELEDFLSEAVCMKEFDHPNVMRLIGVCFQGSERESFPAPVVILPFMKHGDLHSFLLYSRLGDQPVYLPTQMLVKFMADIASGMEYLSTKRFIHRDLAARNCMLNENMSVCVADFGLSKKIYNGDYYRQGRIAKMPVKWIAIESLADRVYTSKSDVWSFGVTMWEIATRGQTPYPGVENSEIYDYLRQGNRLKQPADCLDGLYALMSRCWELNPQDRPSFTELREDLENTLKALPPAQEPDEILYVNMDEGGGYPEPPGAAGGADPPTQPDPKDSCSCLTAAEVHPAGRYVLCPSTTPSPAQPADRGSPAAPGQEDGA
The conditions noted are these: Axl(h), read-out: Inhibition rate. The method in brief: (§1)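 To gauge specificity for MK2, the compound is profiled externally at various concentrations on recombinant human kinases, 380 in total.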

In assay [2] the target is T2, 380 human recombinant protein kinases (Homo sapiens, UniProt P29597).
T2 construct: purchased Eurofins (Celle Lévescault)
T2 sequence (P29597 whole entry): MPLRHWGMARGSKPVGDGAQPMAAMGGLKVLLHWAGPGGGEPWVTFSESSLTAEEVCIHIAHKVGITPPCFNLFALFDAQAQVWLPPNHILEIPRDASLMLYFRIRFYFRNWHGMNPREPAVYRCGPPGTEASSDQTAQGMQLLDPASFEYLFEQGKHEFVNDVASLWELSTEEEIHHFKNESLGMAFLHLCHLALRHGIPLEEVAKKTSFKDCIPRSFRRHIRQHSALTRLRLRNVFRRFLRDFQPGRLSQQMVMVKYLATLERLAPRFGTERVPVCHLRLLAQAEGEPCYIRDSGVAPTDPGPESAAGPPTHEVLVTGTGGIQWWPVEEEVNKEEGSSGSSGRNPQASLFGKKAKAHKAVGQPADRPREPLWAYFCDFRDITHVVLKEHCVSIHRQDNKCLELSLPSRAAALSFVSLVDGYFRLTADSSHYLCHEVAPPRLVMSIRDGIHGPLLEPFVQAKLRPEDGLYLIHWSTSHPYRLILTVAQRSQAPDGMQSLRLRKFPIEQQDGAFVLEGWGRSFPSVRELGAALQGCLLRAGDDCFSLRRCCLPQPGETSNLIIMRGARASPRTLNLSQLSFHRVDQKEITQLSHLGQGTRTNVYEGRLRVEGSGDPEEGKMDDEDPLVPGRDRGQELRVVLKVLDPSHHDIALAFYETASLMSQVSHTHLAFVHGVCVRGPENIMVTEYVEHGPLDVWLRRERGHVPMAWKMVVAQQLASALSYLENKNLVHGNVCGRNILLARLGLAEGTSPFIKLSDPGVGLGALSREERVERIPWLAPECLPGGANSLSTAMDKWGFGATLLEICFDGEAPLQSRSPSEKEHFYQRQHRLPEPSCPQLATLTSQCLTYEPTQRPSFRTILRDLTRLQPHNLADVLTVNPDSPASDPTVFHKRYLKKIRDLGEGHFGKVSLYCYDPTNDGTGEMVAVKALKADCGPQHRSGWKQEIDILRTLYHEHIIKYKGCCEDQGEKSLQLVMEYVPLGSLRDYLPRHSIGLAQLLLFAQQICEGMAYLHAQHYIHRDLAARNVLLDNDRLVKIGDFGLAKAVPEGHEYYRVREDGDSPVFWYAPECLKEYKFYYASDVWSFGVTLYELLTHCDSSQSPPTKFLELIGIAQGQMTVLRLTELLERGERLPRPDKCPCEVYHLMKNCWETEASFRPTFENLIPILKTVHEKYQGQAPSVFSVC
The conditions noted are these: TYK2(h), read-out: Inhibition rate (%). The method in brief:
as §1

The target in assay [3] is T3, 380 human recombinant protein kinases (Homo sapiens, UniProt P52564).
T3 construct: purchased Eurofins (Celle Lévescault)
T3 sequence (P52564 1-334): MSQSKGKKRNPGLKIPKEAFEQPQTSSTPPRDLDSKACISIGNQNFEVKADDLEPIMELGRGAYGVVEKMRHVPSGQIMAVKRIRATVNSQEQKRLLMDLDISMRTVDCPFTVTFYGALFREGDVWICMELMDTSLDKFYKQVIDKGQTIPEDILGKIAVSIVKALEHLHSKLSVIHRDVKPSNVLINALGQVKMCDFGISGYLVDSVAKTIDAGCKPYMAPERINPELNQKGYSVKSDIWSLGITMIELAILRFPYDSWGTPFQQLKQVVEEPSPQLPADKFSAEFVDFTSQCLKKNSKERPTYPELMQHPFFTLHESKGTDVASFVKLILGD
The following applies: MKK6(h), read-out: Inhibition rate. The method in brief: as §1

Assay [4] concerns the target T4, 380 human recombinant protein kinases (Homo sapiens, UniProt Q15831).
T4 construct: purchased Eurofins (Celle Lévescault)
T4 sequence (Q15831 1-433): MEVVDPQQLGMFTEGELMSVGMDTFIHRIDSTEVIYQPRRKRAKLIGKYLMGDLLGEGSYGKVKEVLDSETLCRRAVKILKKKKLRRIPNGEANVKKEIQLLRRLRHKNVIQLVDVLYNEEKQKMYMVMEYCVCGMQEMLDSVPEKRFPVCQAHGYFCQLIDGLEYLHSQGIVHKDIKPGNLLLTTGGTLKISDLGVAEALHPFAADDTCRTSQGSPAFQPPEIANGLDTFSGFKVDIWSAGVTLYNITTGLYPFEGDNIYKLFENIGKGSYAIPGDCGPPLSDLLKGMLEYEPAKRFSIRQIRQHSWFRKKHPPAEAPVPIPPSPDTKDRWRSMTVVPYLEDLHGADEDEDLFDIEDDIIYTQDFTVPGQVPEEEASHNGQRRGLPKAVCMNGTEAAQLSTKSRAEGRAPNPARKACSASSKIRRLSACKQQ
The conditions noted are these: LKB1(h), read-out: Inhibition rate. An outline of the steps: as §1

The target in assay [5] is T5, 380 human recombinant protein kinases (Homo sapiens, UniProt P10398).
T5 construct: purchased Eurofins (Celle Lévescault)
T5 sequence (P10398 1-606): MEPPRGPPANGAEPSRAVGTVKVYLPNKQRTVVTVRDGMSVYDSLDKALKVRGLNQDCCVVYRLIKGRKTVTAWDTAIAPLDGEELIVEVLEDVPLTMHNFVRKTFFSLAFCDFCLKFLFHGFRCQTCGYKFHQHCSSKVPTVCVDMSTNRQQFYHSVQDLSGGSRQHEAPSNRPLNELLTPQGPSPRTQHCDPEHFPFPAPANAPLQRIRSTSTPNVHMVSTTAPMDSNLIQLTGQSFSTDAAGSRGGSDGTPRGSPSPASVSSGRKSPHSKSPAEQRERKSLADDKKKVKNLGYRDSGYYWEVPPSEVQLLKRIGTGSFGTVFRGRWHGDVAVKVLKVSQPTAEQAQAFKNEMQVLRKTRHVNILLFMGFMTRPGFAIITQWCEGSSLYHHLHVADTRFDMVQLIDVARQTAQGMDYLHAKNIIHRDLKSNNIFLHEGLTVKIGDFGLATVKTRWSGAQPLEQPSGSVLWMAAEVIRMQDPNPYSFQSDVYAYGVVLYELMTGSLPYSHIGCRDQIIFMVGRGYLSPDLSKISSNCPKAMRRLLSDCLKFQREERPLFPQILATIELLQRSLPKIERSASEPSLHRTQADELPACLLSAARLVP
The conditions noted are these: A-Raf(h), read-out: Inhibition rate. The method in brief: as §1

Broadly, the inhibition is the drop in the measured response relative to a control, in per cent. As for `C=CC(=O)Nc1cc(-c2cc(-c3cc4c([nH]3)CCNC4=O)ccn2)ccc1OC(F)(F)F` [compound 11], the inhibition at 0.01 µM in assay [1] (10 nM) was -21%; in assay [2] (10 nM), 1%; in assay [3] (10 nM) it was -4%; in assay [4] (10 nM) it was -5%; in assay [5] (10 nM) it was 1%. For the same compound, the inhibition at 0.1 µM in assay [1] (100 nM) was -6%; in assay [2] (100 nM), 10%; in assay [3] (100 nM) it was -9%; in assay [4] (100 nM) it was -3%; in assay [5] (100 nM), 15%. The inhibition at 1 µM in assay [1] (1000 nM) was 26%; in assay [2] (1000 nM), 14%; in assay [3] (1000 nM), -15%; in assay [4] (1000 nM), -6%; in assay [5] (1000 nM), 18%.

These data come from publication PMC11233931, “Remodeling tumor‐associated macrophage for anti‐cancer effects by rational design of irreversible inhibition of mitogen‐activated protein kinase‐activated protein kinase 2” (MedComm, 2024).
